The values that follow come from patent US7094394B2, “Methods and compositions for controlling biofilm development” (priority 1997, dated 2006).

The test system of one assay is algC promoter. Briefly: Alginate promoter reporter activity (beta-galactosidase), algC. The settings on record: batch culture 48 hours, 10 uM OdDHL or 20 uM BHL. Format: cell-based, P. aeruginosa strain 8830. On the procedure:
(§1) FIGS. 3a and 3b are alginate promoter studies which show the activity of the alginate promoters algC, and algD. Cultures of P. aeruginosa strain 8830 were grown for 48 hours in batch culture flasks containing EPRI medium. Test flasks were amended by either 10 uM OdDHL (PAI), 20 uM BHL (butyryl-L-homoserine lactone) or both (PAI+BHL). Following incubation, cells were harvested and promoter activity was measured as specific activity of the beta-galactosidase reporter enzyme as normalized to cell protein.
(§2) 4. […] Alginate is a common matrix material in biofilms, and is not exclusive to P. aeruginosa. The sensitivity of P. aeruginosa to HSL activity provides a rapid assay for HSLs that is sensitive and quantitative. The responsiveness of the specific biofilm genes algC and algD to HSL activity allows assays to be performed in liquid or on semi solid medium. This provides the opportunity to perform rapid screening of test molecules for their effect on alginate production.

For assay [1], the system named is P. aeruginosa PDO100 biofilm. Briefly: Biofilm dispersion by BHL in rhlI knockout. Format: cell-based, Pseudomonas aeruginosa. The protocol:
This hypothesis was investigated by growing biofilms of P. aeruginosa PDOlOO and adding BHL to the influent medium at a concentration of 20 μM after 7 days growth. […] When P. aeruginosa PDOIOO was grown in the absence of BHL, medium flow was turned off after 7 days. Following cessation of flow, no dispersion of cell clusters was observed over the duration of the observation period of 96 hours.

For the next assay, the system named is algD promoter. Briefly: Alginate promoter reporter activity (beta-galactosidase), algD. The assay is classed as cell-based, P. aeruginosa strain 8830. The note with it: batch culture 48 hours, 10 uM OdDHL or 20 uM BHL. On the procedure: as §1, §2
For assay [2], the system named is P. aeruginosa PAO1 biofilm cell clusters. The assay is described as follows: Effect of detergent (0.2% SDS) on biofilm dispersion, wild type. The assay is classed as cell-based, Pseudomonas aeruginosa. The protocol:
SDS on wild-type P. aeruginosa PAO1. The bacteria were grown in EPRI medium in continuous culture for 10 days (a,d). Following the incubation period, 0.2% SDS was added to the reactor and flow was halted for 30 minutes (b,e). Following incubation with SDS, flow was reinitiated (c,f).
(§3) 3. […] It has been shown previously (Davies, Doctoral Thesis, Montana State University, 1996) that matrix polymer, specifically alginate, prevents the dissolution of P.aeruginosa cell clusters treated with 0.2% SDS. However, when cell clusters are formed in the absence of alginate they are completely disrupted in under 30 minutes (FIGS. 2a, 2b, 2c and 2d). By microscopic examination of cell cluster thickness before and after treatment with SDS or by capturing effluent samples following similar treatment, a quantitative evaluation of the effect of agents capable of blocking the production of detergent resistant matrix material can be made.
(§4) In the present experiment, treatment with the detergent was shown not to affect the biofilm in the absence of released alginate lyase.
Following 10 days incubation, the biofilm was analyzed for cell to cell distances, cell cluster thickness and response to treatment with 0.2% SDS. […] Finally, when treated with 0.2% SDS by weight, the treated biofilm was disrupted and dispersed within 30 minutes (FIGS. 5a to 5f).

Assay [3] concerns P. aeruginosa PAO1 wild-type biofilm. The assay is described as follows: Average cell to cell distance in biofilm, wild type. The assay is classed as cell-based, Pseudomonas aeruginosa. The settings on record: 10 uM in growing PAO1 biofilm, 10 days incubation. On the procedure: (§5) 2. Biofilm cell nearest neighbor analysis: This parameter is a measure of the average distance spacing between cells within a biofilm cell cluster or between cells at a substratum. Both measurements are influenced by the presence of the homoserine lactone OdDHL. The nearest neighbor analysis is performed by imaging 20 or more fields in a biofilm reactor and electronically determining the centroid of each cell. The relative distances from a marker cell to all other cells is computed and iterated for each cell in the population. The average nearest neighbor is then calculated. […] When OdDHL is added to the nutrient feed of the mutant defective in the production of that HSL, the average nearest neighbor increases to just over 9 um in distance.
An analog of OdDHL, N-(2,2-difluorodecanoyl)-L-homoserine lactone was dissolved in 25% ethanol, 75% water by volume and added at a final concentration of 10 uM to growing biofilm cultures of P. aeruginosa PAO1 wild-type. Following 10 days incubation, the biofilm was analyzed for cell to cell distances, cell cluster thickness and response to treatment with 0.2% SDS. […] Finally, when treated with 0.2% SDS by weight, the treated biofilm was disrupted and dispersed within 30 minutes (FIGS. 5a to 5f).

Assay [4] shares this test system. The assay is described as follows: Biofilm cell cluster average thickness, wild type. Format: cell-based, Pseudomonas aeruginosa. The settings on record: 10 uM in growing PAO1 biofilm, 10 days incubation. On the procedure:
(§6) 1. Biofilm average cell cluster depth: This parameter is a measure of the average thickness in microns of cell clusters in a biofilm. Depth measurements are performed microscopically, by measuring the maximum distance from the substratum to the apex of a biofilm cell cluster at the bulk water interface in a steady state biofilm for a minimum of 20 cell clusters. Previous measurements have shown that with P. aeruginosa, the average cell cluster depth is 102.3 um with a standard error of the mean of 20.5 um. When the gene responsible for the production of the homoserine lactone OdDHL is knocked out, the average cell cluster depth drops to only 22.8 um with a standard error of the mean of 10.0.
Continuous culture studies. […]
(§7) Log phase P. aeruginosa were inoculated through a septum approximately 1 cm upstream from the flow cell while flow was maintained. […] Flow through the system was then increased to remove any bacteria attached to the inside surface of the coverslip (as determined by microscopy). […]
An analog of OdDHL, N-(2,2-difluorodecanoyl)-L-homoserine lactone was dissolved in 25% ethanol, 75% water by volume and added at a final concentration of 10 uM to growing biofilm cultures of P. aeruginosa PAO1 wild-type. Following 10 days incubation, the biofilm was analyzed for cell to cell distances, cell cluster thickness and response to treatment with 0.2% SDS. […]

Assay [5] has as its system P. aeruginosa PAO-JP2 biofilm. Briefly: Biofilm architecture recovery in double mutant (microscopy). The note with it: double mutant cultured with 10 μM OdDHL in fresh medium. Format: cell-based, Pseudomonas aeruginosa.
Source text: The most unequivocal experimental design, to determine the role of HSL signal molecules on the formation of biofilms by cells of P. aeruginosa, was to use direct microscopic methods to monitor biofilm formation by cells of HSL negative mutants. For this reason planktonic cells of a wild-type strain (PAO1), and of three mutants incapable of synthesizing specific HSLs, were introduced into flow cells, and adhesion and biofilm formation were monitored by means of confocal scanning laser microscopy (CSLM). Using these techniques, it is possible to monitor the development of live biofilms of the strains of interest.
Continuous culture studies. A continuous culture apparatus was developed to observe the growth and development of biofilms attached to a glass substratum. The apparatus was configured as a once through flow cell system. The influent defined culture medium was retained in a four liter glass reservoir. Medium from the influent reservoir was pumped through silicone tubing via a Masterflex pump to an aeration flask sparged with a filtered air source. […]
as §7

For assay [6], the system named is P. aeruginosa PAO-JP1 biofilm cell clusters. Briefly: Effect of detergent (0.2% SDS) on biofilm dispersion, lasI knockout. The assay is classed as cell-based, Pseudomonas aeruginosa. The protocol:
FIGS. 2a, 2b, 2c, and 2d are cell cluster studies which show the effect of the addition of 0.2% SDS to a biofilm cell cluster of the lasI knockout strain P. aerguginosa PAO-JP1. The strain was grown in EPRI medium for 10 days in continuous culture reactor under flowing conditions (a). SDS was added to the culture reactor and flow was turned off for 30 min (b,c). Following incubation in the presence of SDS, flow was reinitiated (d);
as §3, §4

Assay [7] deals with P. aeruginosa JP1 biofilm. Briefly: Biofilm cell nearest neighbor analysis, OdDHL knockout. The note with it: OdDHL (10 uM) added to nutrient feed of OdDHL-defective mutant, at the substratum. The assay is classed as cell-based, Pseudomonas aeruginosa. The protocol: as §5
Assay [8] concerns P. aeruginosa PAO-JP1 biofilm. Briefly: Biofilm average cell cluster depth, OdDHL knockout. The assay is classed as cell-based, Pseudomonas aeruginosa. The note with it: OdDHL added back to nutrient feed of OdDHL knockout; standard error 25.2. The protocol: as §6
Continuous culture studies. A continuous culture apparatus was developed to observe the growth and development of biofilms attached to a glass substratum. The apparatus was configured as a once through flow cell system. The influent defined culture medium was retained in a four liter glass reservoir. […]
as §7

The subject of assay [9] is P. aeruginosa PAO-JP2 biofilm cell clusters. Briefly: Effect of detergent (0.2% SDS) on biofilm dispersion, double mutant. The assay is classed as cell-based, Pseudomonas aeruginosa.
Source text: as §4

Entries after “also recorded” stand apart in the source; their conditions may differ. Bounds are passed on as bounds.

For `CCCC(=O)N[C@H]1CCOC1=O` [BHL, N-butyryl-L-homoserine lactone], in the assay with algC promoter, the algC promoter response entry is listed as “sensitive”. The “effect on biofilm with medium flow on” value in [1] (20 μM BHL in influent medium after 7 days growth, 24 hours) is reported as “no observable effect”. Further, the “detachment after medium flow shut off” value in assay [1] (20 μM BHL, flow off for 16 hours, detachment continued for three hours) is “significant detachment”. For the same compound, the algD promoter response entry in the assay with algD promoter was “sensitive”.

`CCCCCCCCC(F)(F)C(=O)N[C@H]1CCOC1=O` [N-(2,2-difluorodecanoyl)-L-homoserine lactone]: the “time to disruption and dispersion on treatment with 0.2% SDS” value in assay [2] (PAO1 biofilm grown 10 days with 10 uM blocking agent) is not above 30 min. Moreover, the “cell cluster dispersion after 0.2% SDS and reinitiation of flow” value in assay [2] (PAO1 cultured 10 days in presence of 20 uM OdDHL analog, SDS 30 minutes without flow) is listed as “disperses completely”. Moreover, the “average cell to cell distance” value in [3] is listed as “less than 4 um”. For the same compound, the “cell cluster average thickness” value in assay [4] is “under 20 um”.

On to `CCCCCCCCCC(=O)CC(=O)N[C@H]1CCOC1=O` [OdDHL, N-(3-oxododecanoyl)-L-homoserine lactone], for which the biofilm architecture phenotype entry in assay [5] is given as “recovery of the intermediary phenotype”. Further, the “dispersion of cell clusters by 0.2% SDS” value in assay [6] (PAO-JP1 grown in the presence of 10 μM OdDHL) is on record as “did not disperse bacteria in the cell clusters”. Also, the “average nearest neighbor distance” value in assay [7] is given as “over 9 um”. Besides, the algC promoter response result in the assay on algC promoter was “sensitive”. Besides, the “average cell cluster thickness” value in [8] turned out to be 100.1 um. Besides, in the assay with algD promoter, the algD promoter response entry is given as “sensitive”.

As to `CCCCCCCCCCCCOS(=O)(=O)[O-].[Na+]` [SDS, sodium dodecyl sulfate], in [2] (0.2% SDS, untreated wild-type PAO1, sulfate), the “effect of SDS on cell cluster integrity/dispersion” value is listed as “no effect; also recorded: no dispersion or release of bacteria”. The “dispersion of cell clusters by SDS” value in assay [6] (0.2% SDS, PAO-JP1 without added HSL) is reported as “disperse completely”; in [9], “disperse completely”. Further, the “time to complete disruption of cell clusters by SDS” value in assay [6] (0.2% SDS, cell clusters formed in the absence of alginate (FIGS. 2a-2d)) is reported as “under 30 minutes”.
